Values of other authors as cited in paper PMC3591469 (Bioorganic & medicinal chemistry letters, 2011).

Test system: recombinant Brd4 protein derived from bacteria
Conditions: cell-permeable small molecule

SMILES: Cc1sc2c(c1C)C(c1ccc(Cl)cc1)=N[C@@H](CC(=O)OC(C)(C)C)c1nnc(C)n1-2 [JQ1]
- inhibition of recombinant Brd4: selective and potent inhibitor
